Assay results reported in the supplement of paper PMC10627819.

Assays:
B. subtilis 168 [1] = assay: Bliss interaction score (quartile over a dose matrix) (fitness difference); higher = more antagonism (negative = synergy)
In short: (§1)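 At entry into stationary phase, OD595 was recorded and divided by the robust mean of the no-drug wells on that plate, with any value above 1 set to 1. This gives the fitness measure used throughout. Single-drug fitness was inferred from combination data, and the Bliss score, observed minus product-expected fitness, is shown as quartiles across technical, biological and donor/recipient replicates.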

S. aureus Newman [2] = assay: as above
In short: as §1

S. pneumoniae D39V [3] = assay: as above
In short: as §1

S. aureus DSM 20231 = assay: as above
In short: as §1

B. subtilis 168 [4] = assay: fitness (endpoint OD595 vs no drug) (fraction); higher = more growth
In short: (§2)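 Volumes were 30 µl per well, or 55 µl for S. pneumoniae, in 384-well plates inoculated at OD595 0.01. Media were TSB, LB Lennox or CY at 37 °C, and OD595 was read every 30 min for 14 h with first-reading background subtraction. Fitness is the ratio of optical density at stationary-phase entry to the robust mean of no-drug controls. That ratio is capped at 1.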

S. aureus Newman [5] = assay: as above
In short: as §2

S. pneumoniae D39V [6] = assay: as above
In short: as §2
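Throughout, for Bliss interaction score (quartile over a dose matrix): first quartile when negative (synergy) and third quartile when positive (antagonism).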

COc1cccc2c1C(=O)c1c(O)c3c(c(O)c1C2=O)C[C@@](O)(C(=O)CO)C[C@@H]3O[C@H]1C[C@H](N)[C@H](O)[C@H](C)O1 [Doxorubicin] + CN(C)c1cc(NC(=O)CNC(C)(C)C)c(O)c2c1C[C@H]1C[C@H]3[C@H](N(C)C)C(O)=C(C(N)=O)C(=O)[C@@]3(O)C(O)=C1C2=O [Tigecycline]
Details	Bliss interaction score
B. subtilis 168 [1]	0.0886
S. aureus DSM 20231	-0.0419
S. aureus Newman [2]	-0.0645
S. pneumoniae D39V [3]	0.0654

fitness
Details	first compound 0.25 µg/mL	first compound 0.5 µg/mL	first compound 0.625 µg/mL	first compound 1 µg/mL	first compound 1.25 µg/mL	first compound 2.5 µg/mL
B. subtilis 168 [4], partner 0.039 µg/mL	–	–	≥ 1	–	0.952	0.65
B. subtilis 168 [4], partner 0.078 µg/mL	–	–	0.868	–	0.939	0.609
B. subtilis 168 [4], partner 0.156 µg/mL	–	–	0.919	–	0.879	0.693
S. aureus Newman [5], partner 0.039 µg/mL	–	–	0.783	–	0.761	0.71
S. aureus Newman [5], partner 0.078 µg/mL	–	–	0.822	–	0.821	0.742
S. aureus Newman [5], partner 0.156 µg/mL	–	–	0.828	–	0.811	0.744
S. pneumoniae D39V [6], partner 0.325 µg/mL	0.927	0.975	–	0.931	–	–
S. pneumoniae D39V [6], partner 0.65 µg/mL	0.928	0.94	–	0.89	–	–
S. pneumoniae D39V [6], partner 1.3 µg/mL	0.926	0.961	–	0.884	–	–
S. pneumoniae D39V [6], partner 2.6 µg/mL	0.874	0.912	–	0.79	–	–

fitness, B. subtilis 168 [4], one replicate
Details	first compound 0.625 µg/mL	first compound 1.25 µg/mL	first compound 2.5 µg/mL
partner 0.125 µg/mL	0.963	0.984	0.973
partner 0.25 µg/mL	0.89	0.892	0.916
partner 0.5 µg/mL	0.86	0.913	0.925

COc1cccc2c1C(=O)c1c(O)c3c(c(O)c1C2=O)C[C@@](O)(C(=O)CO)C[C@@H]3O[C@H]1C[C@H](N)[C@H](O)[C@H](C)O1 [Doxorubicin] + CN[C@@H]1[C@H](O[C@H]2[C@H](O[C@H]3[C@H](O)[C@@H](O)[C@H](N=C(N)N)[C@@H](O)[C@@H]3N=C(N)N)O[C@@H](C)[C@]2(O)C=O)O[C@@H](CO)[C@H](O)[C@H]1O [Streptomycin]
Details	Bliss interaction score
B. subtilis 168 [1]	-0.355
S. aureus DSM 20231	-0.0832
S. aureus Newman [2]	-0.043
S. pneumoniae D39V [3]	0.0825

fitness
Details	partner 1 µg/mL	partner 2 µg/mL	partner 4 µg/mL	partner 8 µg/mL
B. subtilis 168 [4], first compound 0.625 µg/mL	–	0.869	–	0.0284
B. subtilis 168 [4], first compound 1.25 µg/mL	–	–	–	0.0203
B. subtilis 168 [4], first compound 2.5 µg/mL	–	0.0556	0.0219	0.0198
S. aureus Newman [5], first compound 0.625 µg/mL	0.791	0.788	–	–
S. aureus Newman [5], first compound 1.25 µg/mL	0.769	0.746	–	–
S. aureus Newman [5], first compound 2.5 µg/mL	0.75	0.742	–	–
S. pneumoniae D39V [6], first compound 0.25 µg/mL	–	0.898	0.918	0.892
S. pneumoniae D39V [6], first compound 0.5 µg/mL	–	0.935	0.907	0.901
S. pneumoniae D39V [6], first compound 1 µg/mL	–	0.874	0.875	0.858

S. pneumoniae D39V [6], partner 16 µg/mL, one replicate
Details	fitness
first compound 0.25 µg/mL	0.817
first compound 0.5 µg/mL	0.761
first compound 1 µg/mL	0.558

C[C@@H]1O[C@@H]1P(=O)(O)O [Fosfomycin] + CC(C1CCC(C(O1)OC2C(CC(C(C2O)OC3C(C(C(CO3)(C)O)NC)O)N)N)N)NC [Gentamicin]
main component drawn
Details	Bliss interaction score
B. subtilis 168 [1]	0.152
S. aureus DSM 20231	-0.0757
S. aureus Newman [2]	0.152
S. pneumoniae D39V [3]	-0.0335

main component drawn
Details	fitness
B. subtilis 168 [4], first compound 1.562 µg/mL, partner 0.0625 µg/mL	0.757
B. subtilis 168 [4], first compound 3.124 µg/mL, partner 0.0625 µg/mL	0.629
S. aureus Newman [5], first compound 0.781 µg/mL, partner 0.5 µg/mL	0.705
S. aureus Newman [5], first compound 0.781 µg/mL, partner 1 µg/mL	0.802
S. aureus Newman [5], first compound 0.781 µg/mL, partner 2 µg/mL	0.796
S. aureus Newman [5], first compound 1.562 µg/mL, partner 0.5 µg/mL	0.585
S. aureus Newman [5], first compound 1.562 µg/mL, partner 1 µg/mL	0.65
S. aureus Newman [5], first compound 1.562 µg/mL, partner 2 µg/mL	0.666
S. aureus Newman [5], first compound 3.124 µg/mL, partner 0.5 µg/mL	0.422
S. aureus Newman [5], first compound 3.124 µg/mL, partner 1 µg/mL	0.455
S. aureus Newman [5], first compound 3.124 µg/mL, partner 2 µg/mL	0.464
S. pneumoniae D39V [6], first compound 1.25 µg/mL, partner 2 µg/mL	0.96
S. pneumoniae D39V [6], first compound 1.25 µg/mL, partner 4 µg/mL	0.944
S. pneumoniae D39V [6], first compound 1.25 µg/mL, partner 8 µg/mL	0.948
S. pneumoniae D39V [6], first compound 2.5 µg/mL, partner 2 µg/mL	0.941
S. pneumoniae D39V [6], first compound 2.5 µg/mL, partner 4 µg/mL	0.896
S. pneumoniae D39V [6], first compound 2.5 µg/mL, partner 8 µg/mL	0.876
S. pneumoniae D39V [6], first compound 5 µg/mL, partner 2 µg/mL	0.715
S. pneumoniae D39V [6], first compound 5 µg/mL, partner 4 µg/mL	0.674
S. pneumoniae D39V [6], first compound 5 µg/mL, partner 8 µg/mL	0.72

fitness, S. aureus Newman [5], one replicate, main component drawn
Details	first compound 0.781 µg/mL	first compound 1.562 µg/mL	first compound 3.124 µg/mL
partner 0.375 µg/mL	0.589	0.554	0.236
partner 0.75 µg/mL	0.596	0.571	0.232
partner 1.5 µg/mL	0.537	0.447	0.119

C[C@@H]1O[C@@H]1P(=O)(O)O [Fosfomycin] + CN(C)c1cc(NC(=O)CNC(C)(C)C)c(O)c2c1C[C@H]1C[C@H]3[C@H](N(C)C)C(O)=C(C(N)=O)C(=O)[C@@]3(O)C(O)=C1C2=O [Tigecycline]
Details	Bliss interaction score
B. subtilis 168 [1]	-0.0396
S. aureus DSM 20231	0.044
S. aureus Newman [2]	-0.0631
S. pneumoniae D39V [3]	0.0555

Details	fitness
B. subtilis 168 [4], first compound 1.562 µg/mL, partner 0.039 µg/mL	0.76
B. subtilis 168 [4], first compound 1.562 µg/mL, partner 0.078 µg/mL	0.746
B. subtilis 168 [4], first compound 1.562 µg/mL, partner 0.156 µg/mL	0.713
B. subtilis 168 [4], first compound 3.124 µg/mL, partner 0.039 µg/mL	0.655
B. subtilis 168 [4], first compound 3.124 µg/mL, partner 0.078 µg/mL	0.598
B. subtilis 168 [4], first compound 3.124 µg/mL, partner 0.156 µg/mL	0.595
B. subtilis 168 [4], first compound 6.248 µg/mL, partner 0.039 µg/mL	0.52
B. subtilis 168 [4], first compound 6.248 µg/mL, partner 0.078 µg/mL	0.488
B. subtilis 168 [4], first compound 6.248 µg/mL, partner 0.156 µg/mL	0.492
S. aureus Newman [5], first compound 0.781 µg/mL, partner 0.039 µg/mL	0.558
S. aureus Newman [5], first compound 0.781 µg/mL, partner 0.078 µg/mL	0.57
S. aureus Newman [5], first compound 0.781 µg/mL, partner 0.156 µg/mL	0.593
S. aureus Newman [5], first compound 1.562 µg/mL, partner 0.039 µg/mL	0.47
S. aureus Newman [5], first compound 1.562 µg/mL, partner 0.078 µg/mL	0.504
S. aureus Newman [5], first compound 1.562 µg/mL, partner 0.156 µg/mL	0.518
S. aureus Newman [5], first compound 3.124 µg/mL, partner 0.039 µg/mL	0.177
S. aureus Newman [5], first compound 3.124 µg/mL, partner 0.078 µg/mL	0.188
S. aureus Newman [5], first compound 3.124 µg/mL, partner 0.156 µg/mL	0.184
S. pneumoniae D39V [6], first compound 1.25 µg/mL, partner 0.325 µg/mL	0.929
S. pneumoniae D39V [6], first compound 1.25 µg/mL, partner 0.65 µg/mL	0.921
S. pneumoniae D39V [6], first compound 1.25 µg/mL, partner 1.3 µg/mL	0.942
S. pneumoniae D39V [6], first compound 1.25 µg/mL, partner 2.6 µg/mL	0.921
S. pneumoniae D39V [6], first compound 2.5 µg/mL, partner 0.325 µg/mL	0.953
S. pneumoniae D39V [6], first compound 2.5 µg/mL, partner 0.65 µg/mL	0.912
S. pneumoniae D39V [6], first compound 2.5 µg/mL, partner 1.3 µg/mL	0.92
S. pneumoniae D39V [6], first compound 2.5 µg/mL, partner 2.6 µg/mL	0.86
S. pneumoniae D39V [6], first compound 5 µg/mL, partner 0.325 µg/mL	0.796
S. pneumoniae D39V [6], first compound 5 µg/mL, partner 0.65 µg/mL	0.748
S. pneumoniae D39V [6], first compound 5 µg/mL, partner 1.3 µg/mL	0.791
S. pneumoniae D39V [6], first compound 5 µg/mL, partner 2.6 µg/mL	0.809

fitness, B. subtilis 168 [4], one replicate
Details	first compound 1.562 µg/mL	first compound 3.124 µg/mL	first compound 6.248 µg/mL
partner 0.125 µg/mL	0.833	0.771	0.576
partner 0.25 µg/mL	0.819	0.662	0.537
partner 0.5 µg/mL	0.753	0.683	0.568
